Assays:
Anti-Dox-A549 cells [1] = test: Cell cycle analysis by flow cytometer (PI staining); type: cell-based, human; conditions: for G0/G1 (%) / G2/M (%) / S (%) / Sub G1 (%): Anti-Dox-A549
Description: (§1) The results of Example 2 in cell viability hinted the effects of HCD, PG, and Dox on arresting cell cycle. In this example, the phase of cell cycle of A549 cells and Anti-Dox-A549 cells after the treatment listed in Table 1 was determined by flow cytometer. Briefly, 7×10^4 cells per well were to inoculated in 12-wells plate and incubated overnight at 37° C., 5% CO2. Then, cells were treated according to the treatment listed in Table 1 by indicated time period. After treatment, cells were harvested by trypsin and fixed with 70% ethanol at −20° C. for at least 3 hr. The cells were washed in cold PBS twice and then incubated with 1 ml (v/v) staining solution (20 μg/m1 propidium iodide (PI), 0.1% Triton X-100, 0.2 mg/ml Rnase) at 37° C. for 30 minutes. Lastly, cells were analyzed by flow cytometer (Cytomics™ FC500, Backman, Fullerton, Calif., USA). Data from 10,000 cells were collected for each experimental group.

A549 cells [2] = test: as above; type: cell-based, human; conditions: for G0/G1 (%) / G2/M (%) / S (%) / Sub G1 (%): A549
Description: as §1

[3] = system: human lung cancer in lung of mice; test: Mouse model bearing human lung cancer in lung (A549 or Anti-Dox-A549 cells injected)
Description: The animal experiments were approved by the National Dong-Hwa University Animal Ethics Committee and the experimental protocols were used according to the “Guide for the Care and Use of Laboratory Animals” of National Dong-Hwa University. 1×10^7 of A549 cells or Anti-Dox-A549 cells were suspended in PBS to prepare cell suspensions. On day 0, C57/BL6 mice (6-8 weeks old, n=6) were weighted and anesthetic using pentobarbital (5 mg/ml). Then, the mice were injected with the cell suspension (1×10^7 cells per mouse) into the lung by IT. The injection was repeated every 7 days for 21 days. Another group of mice were injected with 10% EtOH as comparative group according to the same procedure set forth above.
After the establishment of human lung cancer in the experimental mice, the mice were maintained for one more week and then treated with HCD (0.0318 or 1.272 mg/kg body weight, in 10% ETOH with PBS), PG (0.1615 or 0.646 mg/kg body weight, in 10% ETOH with PBS) or 10% EtOH by IT injection (intrathecal injection) to the lung. The body weight was monitored every five days for thirty days. After thirty days, the mice were sacrificed and the lungs were checked for marker of human lung adenocarcinoma by H&E and IHC staining. The livers, kidneys and spleens of the mice were also examined to confirm the cytotoxicity of HCD and PG and to see if there was any metastasis happened.

Anti-Dox-A549 cells [4] = test: MTT assay, cell viability; type: cell-based, human
Description: (§2) A549 (lung cancer cell line, non-resistance) and Anti-Dox-A549 (lung cancer cell line with resistance to Doxorubicin) were maintained in DMEM supplemented with 10% fetal bovine serum (FBS, Gibco), pH 7.4, 37° C. and with continuous circulation of 5% CO2. The medium was changed every 2 days and the cells were trypsinized with trypsin/EDTA when reaching 80%-90% confluence.
(§3) A549 and Anti-Dox-A549 were treated by the following treatment (Table 1) for 24 or 48 hr for examining the effects of HCD, PG, and Dox on their viability.
(§4) Dox1is referred as Dox of 1 μM; Dox2.5 is referred as Dox of 2.5 μM; Dox5 is referred as Dox of 5 μM; Dox10 is referred as Dox of 10 μM; Dox100 is referred as Dox of 100 μM. HCD2.5 is referred as HCD of 2.5 μM; HCD10 is referred as HCD of 10 μM; HCD25 is referred as HCD of 25 μM; HCD50 is referred as HCD of 50 μM. PG2.5 is referred as PG of 2.5 μM; PG5 is referred as PG of 5 μM; PG10 is referred as PG of 10 μM; PG20 is referred as PG of 20 μM.
(§5) In this example, the effects of HCD, PG, and Dox on the viability of A549 and anti-Dox-A549 were examined. The MTT assay was employed for this purpose. The MTT (3-(4-,5-dimethylthiazol-2-yl)-2,5-diphenyltetrazolium bromide) assay is a common colorimetric method in the field for cell viability analysis. MTT (yellow tetrazolium salt) is reduced to a purple formazan by living cells and detection to the purple formazan can be calculated as the cell viability.
(§6) Briefly, cells (A549 or Anti-Dox-A549) were seeded in 96-well plate (7×10^3 cell per well) and incubated overnight (37° C., 5% CO2).

A549 cells [5] = test: MTT assay, cell viability; type: cell-based, human
Description: as §2, §3, §4, §5, §6

[6] = mice treated by IT injection to the lung, after thirty days, data not shown
[7] = pre-treatment (HCD especially 10 or 25 μM), then Dox 1 or 2.5 μM

CC1=CCCC2C1(C)CCC(C)C2(C)CCC1=CC(=O)OC1O (stereo not drawn) [HCD, 16-hydroxy-cleroda-3,13-dine-15,16-olide]
cell cycle effect compared with the control group (Anti-Dox-A549 cells [1]; Anti-Dox-A549 cells, Tables 2 and 4): increased cell cycle arrest at G2/M phase | cell cycle effect of pre-treatment and subsequent Dox (Anti-Dox-A549 cells [1]; Anti-Dox-A549 cells, Tables 8 and 10): increased sub G1 phase and arrested at G2/M phase | G0/G1 (%) (Anti-Dox-A549 cells [1]; HCD 2.5 μM, 24 hr): 68.2 ± 2.8% | G2/M (%) (Anti-Dox-A549 cells [1]; HCD 2.5 μM, 24 hr): 16.5 ± 1.8% | S (%) (Anti-Dox-A549 cells [1]; HCD 2.5 μM, 24 hr): 12.1 ± 0.8% | Sub G1 (%) (Anti-Dox-A549 cells [1]; HCD 2.5 μM, 24 hr): 0.63 ± 0.05% | G0/G1 (%) (Anti-Dox-A549 cells [1]; HCD 2.5 μM, 36 hr): 80.3 ± 0.6% | G2/M (%) (Anti-Dox-A549 cells [1]; HCD 2.5 μM, 36 hr): 9.6 ± 0.3% | S (%) (Anti-Dox-A549 cells [1]; HCD 2.5 μM, 36 hr): 7.4 ± 0.2% | Sub G1 (%) (Anti-Dox-A549 cells [1]; HCD 2.5 μM, 36 hr): 0.93 ± 0.2% | G0/G1 (%) (Anti-Dox-A549 cells [1]; HCD 2.5 μM, 48 hr): 82.1 ± 0.7% | G2/M (%) (Anti-Dox-A549 cells [1]; HCD 2.5 μM, 48 hr): 8.9 ± 0.7% | S (%) (Anti-Dox-A549 cells [1]; HCD 2.5 μM, 48 hr): 6.1 ± 0.3% | Sub G1 (%) (Anti-Dox-A549 cells [1]; HCD 2.5 μM, 48 hr): 1.56 ± 0.2% | G0/G1 (%) (Anti-Dox-A549 cells [1]; HCD 10 μM, 24 hr): 83.6 ± 1.4 % | G2/M (%) (Anti-Dox-A549 cells [1]; HCD 10 μM, 24 hr): 6.6 ± 0.55 % | S (%) (Anti-Dox-A549 cells [1]; HCD 10 μM, 24 hr): 7.0 ± 0.6% | Sub G1 (%) (Anti-Dox-A549 cells [1]; HCD 10 μM, 24 hr): 0.73 ± 0.05% | G0/G1 (%) (Anti-Dox-A549 cells [1]; HCD 10 μM, 36 hr): 75.8 ± 0.3 % | G2/M (%) (Anti-Dox-A549 cells [1]; HCD 10 μM, 36 hr): 11.8 ± 1.0 % | S (%) (Anti-Dox-A549 cells [1]; HCD 10 μM, 36 hr): 9.2 ± 0.4 % | Sub G1 (%) (Anti-Dox-A549 cells [1]; HCD 10 μM, 36 hr): 1 ± 0.2% | G0/G1 (%) (Anti-Dox-A549 cells [1]; HCD 10 μM, 48 hr): 82.2 ± 0.7% | G2/M (%) (Anti-Dox-A549 cells [1]; HCD 10 μM, 48 hr): 8.3 ± 0.2% | S (%) (Anti-Dox-A549 cells [1]; HCD 10 μM, 48 hr): 6.4 ± 0.3% | Sub G1 (%) (Anti-Dox-A549 cells [1]; HCD 10 μM, 48 hr): 1.76 ± 0.1% | G0/G1 (%) (Anti-Dox-A549 cells [1]; HCD 25 μM, 24 hr): 70.5 ± 2.7% | G2/M (%) (Anti-Dox-A549 cells [1]; HCD 25 μM, 24 hr): 19.3 ± 1.7 % | S (%) (Anti-Dox-A549 cells [1]; HCD 25 μM, 24 hr): 7.9 ± 0.8 % | Sub G1 (%) (Anti-Dox-A549 cells [1]; HCD 25 μM, 24 hr): 1.3 ± 0.1 % | G0/G1 (%) (Anti-Dox-A549 cells [1]; HCD 25 μM, 36 hr): 73.9 ± 2.7 % | G2/M (%) (Anti-Dox-A549 cells [1]; HCD 25 μM, 36 hr): 17.7 ± 1.9 % | S (%) (Anti-Dox-A549 cells [1]; HCD 25 μM, 36 hr): 5.4 ± 0.9% | Sub G1 (%) (Anti-Dox-A549 cells [1]; HCD 25 μM, 36 hr): 3.43 ± 0.2 % | G0/G1 (%) (Anti-Dox-A549 cells [1]; HCD 25 μM, 48 hr): 3.73 ± 1.6 % | G2/M (%) (Anti-Dox-A549 cells [1]; HCD 25 μM, 48 hr): 21.8 ± 2.4 % | S (%) (Anti-Dox-A549 cells [1]; HCD 25 μM, 48 hr): 11.2 ± 1.3 % | Sub G1 (%) (Anti-Dox-A549 cells [1]; HCD 25 μM, 48 hr): 27.2 ± 0.5 % | cell cycle effect compared with the control group (A549 cells [2]; A549 cells, Tables 3 and 5): increased cell cycle arrest at G2/M phase | cell cycle effect of pre-treatment and subsequent Dox (A549 cells [2]; A549 cells, Tables 9 and 11): increased sub G1 phase and arrested at G2/M phase | G0/G1 (%) (A549 cells [2]; HCD 2.5 μM, 24 hr): 77.3 ± 0.9% | G2/M (%) (A549 cells [2]; HCD 2.5 μM, 24 hr): 9.7 ± 0.9% | S (%) (A549 cells [2]; HCD 2.5 μM, 24 hr): 9.6 ± 0.5% | Sub G1 (%) (A549 cells [2]; HCD 2.5 μM, 24 hr): 1.0 ± 0.2% | G0/G1 (%) (A549 cells [2]; HCD 2.5 μM, 36 hr): 74.4 ± 2.6 % | G2/M (%) (A549 cells [2]; HCD 2.5 μM, 36 hr): 11.8 ± 0.9% | S (%) (A549 cells [2]; HCD 2.5 μM, 36 hr): 9.5 ± 0.4 % | Sub G1 (%) (A549 cells [2]; HCD 2.5 μM, 36 hr): 1.1 ± 0.1% | G0/G1 (%) (A549 cells [2]; HCD 2.5 μM, 48 hr): 80.4 ± 0.2% | G2/M (%) (A549 cells [2]; HCD 2.5 μM, 48 hr): 8.9 ± 0.1% | S (%) (A549 cells [2]; HCD 2.5 μM, 48 hr): 6.9 ± 0.1% | Sub G1 (%) (A549 cells [2]; HCD 2.5 μM, 48 hr): 1.8 ± 0.2% | G0/G1 (%) (A549 cells [2]; HCD 10 μM, 24 hr): 85.6 ± 6.9 % | G2/M (%) (A549 cells [2]; HCD 10 μM, 24 hr): 6.1 ± 0.5 % | S (%) (A549 cells [2]; HCD 10 μM, 24 hr): 3.9 ± 2.8 % | Sub G1 (%) (A549 cells [2]; HCD 10 μM, 24 hr): 1 ± 0.2% | G0/G1 (%) (A549 cells [2]; HCD 10 μM, 36 hr): 75.4 ± 1.8% | G2/M (%) (A549 cells [2]; HCD 10 μM, 36 hr): 10.0 ± 1.2% | S (%) (A549 cells [2]; HCD 10 μM, 36 hr): 10.7 ± 0.4 % | Sub G1 (%) (A549 cells [2]; HCD 10 μM, 36 hr): 1.4 ± 0.2% | G0/G1 (%) (A549 cells [2]; HCD 10 μM, 48 hr): 75.6 ± 1.8% | G2/M (%) (A549 cells [2]; HCD 10 μM, 48 hr): 11.2 ± 0.2 % | S (%) (A549 cells [2]; HCD 10 μM, 48 hr): 8.7 ± 0.2% | Sub G1 (%) (A549 cells [2]; HCD 10 μM, 48 hr): 1.8 ± 0.2% | G0/G1 (%) (A549 cells [2]; HCD 25 μM, 24 hr): 62.9 ± 3.3% | G2/M (%) (A549 cells [2]; HCD 25 μM, 24 hr): 22.8 ± 3.0 % | S (%) (A549 cells [2]; HCD 25 μM, 24 hr): 11.1 ± 1.3% | Sub G1 (%) (A549 cells [2]; HCD 25 μM, 24 hr): 1.5 ± 0.2% | G0/G1 (%) (A549 cells [2]; HCD 25 μM, 36 hr): 62.3 ± 1.3 % | G2/M (%) (A549 cells [2]; HCD 25 μM, 36 hr): 22.8 ± 1.5 % | S (%) (A549 cells [2]; HCD 25 μM, 36 hr): 9.2 ± 0.7 % | Sub G1 (%) (A549 cells [2]; HCD 25 μM, 36 hr): 2.7 ± 0.1 % | G0/G1 (%) (A549 cells [2]; HCD 25 μM, 48 hr): 61.7 ± 1.2 % | G2/M (%) (A549 cells [2]; HCD 25 μM, 48 hr): 22.7 ± 0.5 % | S (%) (A549 cells [2]; HCD 25 μM, 48 hr): 7.9 ± 1.3% | Sub G1 (%) (A549 cells [2]; HCD 25 μM, 48 hr): 1.9 ± 0.5 % | H&E and IHC staining of the lung ([3]; HCD 0.0318 or 1.272 mg/kg, PG 0.1615 or 0.646 mg/kg body weight, IT injection to the lung, after thirty days): less cell invention around blood vessels 1 and less cell accumulation 2 around the trachea 4 | body weight of the experimental mice ([3]; HCD 0.0318 or 1.272 mg/kg, PG 0.1615 or 0.646 mg/kg body weight, IT injection to the lung, monitored every five days for thirty days): did not show significantly change | injury of livers, kidneys and spleens (staining) [3, 6]: did not cause serious cytotoxicity | metastasis in livers, kidneys and spleens [3, 6]: no metastasis happened | IC50 (Anti-Dox-A549 cells [4]; 24 hr treatment): ~50 µM | effect of pre-treatment on the effects of Dox on cell viability (Anti-Dox-A549 cells [4]; [7]): rescue the sensitivity of Anti-Dox-A549 cells to Dox | IC50 (A549 cells [5]; 24 hr treatment): ~50 µM | effect of pre-treatment on the effects of Dox on cell viability (A549 cells [5]; [7]): enhance the effects of Dox on viability
